Laboratory results reported in ChEMBL document CHEMBL1221246, “Structure-activity studies on acetylcholinesterase inhibition in the lycorine series of Amaryllidaceae alkaloids” (Bioorg Med Chem Lett, 2010).

The compounds below were run against T1, Acetylcholinesterase (Homo sapiens, UniProt P22303) (assay: Inhibition of AChE at 10 uM by Ellman's assay).
T1 sequence (P22303 whole entry): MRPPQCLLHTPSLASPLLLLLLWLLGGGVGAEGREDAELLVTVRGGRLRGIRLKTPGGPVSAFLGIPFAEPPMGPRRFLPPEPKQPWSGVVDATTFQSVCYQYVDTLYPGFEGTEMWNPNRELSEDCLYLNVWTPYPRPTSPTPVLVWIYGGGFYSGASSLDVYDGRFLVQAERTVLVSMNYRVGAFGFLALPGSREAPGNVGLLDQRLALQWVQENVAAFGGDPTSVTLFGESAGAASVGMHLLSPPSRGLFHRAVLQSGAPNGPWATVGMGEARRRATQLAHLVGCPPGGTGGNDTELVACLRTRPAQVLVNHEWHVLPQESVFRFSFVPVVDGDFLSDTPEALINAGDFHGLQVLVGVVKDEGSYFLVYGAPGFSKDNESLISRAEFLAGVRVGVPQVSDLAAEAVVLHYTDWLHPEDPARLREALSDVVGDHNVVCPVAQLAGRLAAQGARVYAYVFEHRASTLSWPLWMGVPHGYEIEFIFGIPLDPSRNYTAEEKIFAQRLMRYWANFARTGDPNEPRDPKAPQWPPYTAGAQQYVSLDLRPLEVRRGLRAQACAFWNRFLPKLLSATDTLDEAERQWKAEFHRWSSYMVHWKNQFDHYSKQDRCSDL
For `COc1cc2c(cc1OC)[C@H]1[C@H]3C(=CC[C@H]1OC2=O)CCN3C` [HOMOLYCORINE], the Ki was “Not Active”. With `CO[C@@H]1C=C[C@@]23c4cc5c(cc4CO[C@]2(O)CN(C)[C@H]3C1)OCO5` [TAZETTINE] the Ki was “Not Active”. In the case of `CO[C@H]1C=C[C@@]23c4cc5c(cc4CN(C[C@@H]2O)[C@H]3C1)OCO5`, the Ki is reported as “Not Active”. With `CC(=O)O[C@H]1[C@H]2c3cc4c(cc3CN3CCC(=C[C@@H]1OC(C)=O)[C@H]23)OCO4` the Ki was “Not Active”. In the case of `O[C@H]1[C@H]2c3cc4c(cc3CN3CCC(=C[C@@H]1O)[C@H]23)OCO4` [LYCORINE], the Ki is reported as “Not Active”. For `CO[C@H]1C=C2[C@H]3CN(Cc4cc5c(cc43)OCO5)[C@H]2C[C@@H]1O` [MONTANINE], the Ki was “Not Active”. In the case of `O[C@H]1C=C[C@@]23CCN(Cc4cc5c(cc42)OCO5)[C@@H]3C1` [CRININE], the Ki is reported as “Not Active”. With `COc1cc2c(cc1O)[C@@H]1[C@H](O)[C@@H](O)C=C3CCN(C2)[C@H]31` [PSEUDOLYCORINE] the Ki was “Not Active”.

What follows are compounds tested against T1, Acetylcholinesterase (assay: Inhibition of AChE by Ellman's assay).
In the case of `O=C(O[C@H]1[C@H]2c3cc4c(cc3CN3CCC(=C[C@@H]1O)[C@H]23)OCO4)c1ccccc1`, the Ki is reported as 540 nM. Compound `CC(C)(C)[Si](C)(C)O[C@H]1C=C2CCN3Cc4cc5c(cc4[C@H]([C@@H]1OC(=O)c1ccccc1)[C@@H]23)OCO5` has a Ki of 390 nM. `CC(=O)O[C@H]1C=C2CCN3Cc4cc5c(cc4[C@H]([C@@H]1OC(=O)c1ccccc1)[C@@H]23)OCO5` gave a Ki of 970 nM. Work on `CC(=O)O[C@H]1[C@H]2c3cc4c(cc3CN3CCC(=C[C@@H]1O)[C@H]23)OCO4` yielded a Ki of 430 nM. `CC(=O)O[C@H]1[C@H]2c3cc4c(cc3CN3CCC(=C[C@@H]1O[Si](C)(C)C(C)(C)C)[C@H]23)OCO4` was tested, and the Ki was 340 nM. `CC(C)(C)[Si](C)(C)O[C@H]1C=C2CCN3Cc4cc5c(cc4[C@H]([C@@H]1O)[C@@H]23)OCO5` was tested, and the Ki was 860 nM.
